Laboratory results taken from PubChem BioAssay (NCI).
“And” between values parts separate entries of the source, which are not always exact repeats. Identical values can stand only once.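 Cultured in 96-well plates, cells were exposed to test compound for 48 hours across five concentrations. Here, GI50 denotes the concentration required for 50% inhibition of growth. TGI: total growth inhibition.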 Where a SMILES comes first, the peptide text is derived from it. The star is where a group is joined. Boc = CC(C)(C)OC(=O)*

How the values were obtained:
Test in all cases: NCI tumour cell line growth inhibition, 48 h
OVCAR-3 ovarian = tested on: OVCAR-3 ovarian
HS 578T breast = tested on: HS 578T breast
U251 CNS = tested on: U251 CNS
A498 renal = tested on: A498 renal
CAKI-1 renal = tested on: CAKI-1 renal
SN12C renal = tested on: SN12C renal
SK-MEL-5 melanoma = tested on: SK-MEL-5 melanoma
UACC-257 melanoma = tested on: UACC-257 melanoma
SF-539 CNS = tested on: SF-539 CNS
HOP-62 NSCLC = tested on: HOP-62 NSCLC
HCC-2998 colon = tested on: HCC-2998 colon
BT-549 breast = tested on: BT-549 breast
RXF 393 renal = tested on: RXF 393 renal

SMILES | TGI (OVCAR-3 ovarian) | TGI (HS 578T breast) | TGI (U251 CNS) | TGI (A498 renal) | TGI (CAKI-1 renal) | TGI (SN12C renal) | TGI (SK-MEL-5 melanoma) | TGI (UACC-257 melanoma) | TGI (SF-539 CNS) | TGI (HOP-62 NSCLC) | TGI (HCC-2998 colon) | TGI (BT-549 breast) | TGI (RXF 393 renal) | GI50 (RXF 393 renal) | GI50 (OVCAR-3 ovarian) | GI50 (A498 renal) | GI50 (SN12C renal) | GI50 (SK-MEL-5 melanoma) | GI50 (UACC-257 melanoma) | GI50 (HCC-2998 colon)
CC(C)(C)c1cc(C(C)(C)C)c(P=C(Cl)Cl)c(C(C)(C)C)c1 (configuration not stated) | > 100 µM | > 100 µM | > 100 µM | > 100 µM | > 100 µM | > 100 µM | > 100 µM | > 100 µM | > 100 µM | > 100 µM | > 100 µM | > 100 µM | – | – | – | – | – | – | – | –
CN1NC2=NCCN=C3NN(C)C(=NCCN=C1S2)S3 | – | – | > 100 µM | > 100 µM | – | > 100 µM | > 100 µM | > 100 µM | > 100 µM | > 100 µM | – | – | > 100 µM | – | – | – | – | – | – | –
CCOC(=O)C12C3CCC1C2C(=O)C3 (configuration not stated) | > 100 µM | – | > 100 µM | – | > 100 µM | > 100 µM | > 100 µM | > 100 µM | > 100 µM | > 100 µM | > 100 µM | > 100 µM | > 100 µM | – | – | – | – | – | – | –
O=[N+]([O-])/C(C(Cl)=C(Cl)Cl)=C(\Nc1cccc2cccnc12)Sc1ccccc1 | 28.3 µM | 38 µM | 54.2 µM | 69.4 µM | 46.7 µM | 87.7 µM | – | 55.7 µM | 40.4 µM | 80.7 µM | > 100 µM | 48 µM | – | – | – | – | – | – | – | –
O=C1CCCSCCCC(=O)CCCSCCC1 | > 100 µM | – | > 100 µM | – | – | > 100 µM | > 100 µM | > 100 µM | > 100 µM | > 100 µM | > 100 µM | > 100 µM | – | – | – | – | – | – | – | –
CC(C)(C)c1ccc(Oc2ccc(C#N)c(C#N)c2)c(C(C)(C)C)c1 | > 100 µM | – | > 100 µM | > 100 µM | > 100 µM | > 100 µM | > 100 µM | > 100 µM | > 100 µM | > 100 µM | > 100 µM | – | > 95.7 µM | – | – | – | – | – | – | –
Cc1ccc(-n2nnc3c(NNc4ccccc4)n[nH]c(=O)c32)cc1 | – | – | > 100 µM | – | > 100 µM | > 100 µM | > 100 µM | > 100 µM | > 100 µM | > 100 µM | > 100 µM | > 100 µM | – | – | – | – | – | – | – | –
COC(=O)C(Cc1c[nH]c2ccccc12)NC(=O)C(Cc1c[nH]c2ccccc12)NC(=O)C(Cc1c[nH]c2ccccc12)NC(=O)C(Cc1c[nH]c2ccccc12)NC(=O)C(Cc1c[nH]c2ccccc12)NC(=O)OC(C)(C)C (configuration not stated) (Boc-WWWWW-OMe; configuration not given here) | > 100 µM | – | > 100 µM | – | > 100 µM | > 100 µM | 56.5 µM | > 100 µM | – | > 100 µM | > 100 µM | > 100 µM | – | – | – | – | – | – | – | –
N#CCN(Cc1ccccc1)[C@H]1CCC[C@]1(O)/C=C/c1ccc2c(c1)OCO2 | 57.6 µM | 43 µM | 38.6 µM | > 100 µM | > 100 µM | – | 30.1 µM | 58 µM | 88.8 µM | 82.6 µM | 33.4 µM | – | 77.3 µM | – | – | – | – | – | – | –
Brc1nc2c3ccccc3ncn2c1Br | 22.5 µM | – | > 100 µM | > 100 µM | 79.5 µM | > 100 µM | 39.3 µM | > 100 µM | > 100 µM | > 100 µM | > 100 µM | – | 86.1 µM | – | – | – | – | – | – | –
COc1ccc(OC)c2sc(N3C(=O)/C(=C/c4ccc(N(C)C)cc4)N=C3c3ccccc3)nc12 | > 100 µM | > 100 µM | > 100 µM | > 100 µM | > 100 µM | > 100 µM | > 100 µM | > 100 µM | > 100 µM | > 100 µM | > 100 µM | > 100 µM | – | – | – | – | – | – | – | –
CCOC(=O)/C(=C\NC[C@@H](C)O)c1nc2ccccc2[nH]1 | > 100 µM | – | – | > 100 µM | > 100 µM | > 100 µM | > 100 µM | > 100 µM | > 100 µM | > 100 µM | > 100 µM | > 100 µM | > 100 µM | – | – | – | – | – | – | –
Cc1c2[nH]c3ccc(Br)cc3c2c(C)c2[nH]ccc(=O)c12 | 32.2 µM | – | – | – | 28 µM | 32.4 µM | 64.2 µM | 34.9 µM | 32 µM | 28.6 µM | 31.1 µM | – | – | – | – | – | – | – | – | –
COC(=O)CC(SCCO)SCCO | > 100 µM | > 100 µM | – | > 100 µM | > 100 µM | > 100 µM | > 100 µM | > 100 µM | > 100 µM | > 100 µM | > 100 µM | – | > 100 µM | – | – | – | – | – | – | –
CN(OC(=O)CC(=O)c1ccccc1)C(=O)Cc1ccccc1 | > 100 µM | – | > 100 µM | > 100 µM | > 100 µM | > 100 µM | > 100 µM | > 100 µM | > 100 µM | > 100 µM | – | – | – | – | – | – | – | – | – | –
CCCCC1=C(C(=O)N2CCOCC2)C2(OCCO2)C1Cl (configuration not stated) | – | > 100 µM | > 100 µM | > 100 µM | 86.5 µM | 50.1 µM | 39.6 µM | 60.9 µM | 37.8 µM | > 100 µM | – | – | 81.6 µM | – | – | – | – | – | – | –
CC[C@@]1(O)C(=O)OCc2c1cc1n(c2=O)Cc2c-1nc1ccccc1c2C=Nc1ccc(N[C@@H]2c3cc4c(cc3[C@@H](c3cc(OC)c(O)c(OC)c3)[C@H]3C(=O)OC[C@@H]32)OCO4)cc1 | 6.01 µM and 0.74 µM | > 100 µM | > 48.8 µM | 1.72 µM and 0.261 µM | – | – | 0.309 µM and 0.366 µM | – | 0.132 µM | – | – | – | 2.25 µM and 0.546 µM | 0.127 µM and 0.0526 µM | 0.557 µM and 0.185 µM | 0.21 µM and 0.0448 µM | 0.0291 µM and 0.0101 µM | 0.0255 µM | 0.354 µM | 0.369 µM and 0.131 µM
C=C[C@@]1(C)CC(=O)[C@]2(O)[C@@]3(C)[C@@H](OC(C)=O)CCC(C)(C)[C@@H]3[C@H](O)[C@H](OC(C)=O)[C@@]2(C)O1 | > 100 µM | – | > 100 µM | > 100 µM | > 100 µM | > 100 µM | – | > 100 µM | > 100 µM | > 100 µM | > 100 µM | > 100 µM | – | – | – | – | – | – | – | –
COc1c2c(c(OC)c3c(=O)cc(C/C(=N/NC(=O)C[n+]4ccccc4)C(=O)Nc4cc(C)ccc4C)oc13)OCO2 | > 100 µM | – | > 100 µM | > 100 µM | > 100 µM | > 100 µM | > 100 µM | > 100 µM | > 100 µM | > 100 µM | > 100 µM | – | > 100 µM | – | – | – | – | – | – | –
C(=C\c1ccccc1)/Cn1nc(-c2ccccc2)nc1-c1cnccn1 | > 100 µM | – | > 100 µM | – | – | > 100 µM | > 100 µM | > 100 µM | > 100 µM | > 100 µM | > 100 µM | > 100 µM | > 100 µM | – | – | – | – | – | – | –
COC1=C(OC)C(=O)c2cc(SC)c(=O)c(SC)cc2C1=O | 23.4 µM | – | 38.7 µM | 66.3 µM | > 100 µM | 28.7 µM | 25.9 µM | 21.6 µM | 24.8 µM | 31.2 µM | > 100 µM | – | 16.8 µM | – | – | – | – | – | – | –
CCOC(=O)CCN1C(=O)c2ccc(NC(=O)C(=O)O)cc2S1(=O)=O | > 100 µM | > 100 µM | > 100 µM | > 100 µM | > 100 µM | > 100 µM | > 100 µM | > 100 µM | > 100 µM | > 100 µM | > 100 µM | > 100 µM | – | – | – | – | – | – | – | –
CC1=NN(c2cccc(Cl)c2)C(=N/c2nc3ccccc3s2)/C1=C\c1ccccc1O | 60.4 µM | 56.5 µM | 61 µM | 52.4 µM | > 100 µM | – | 46.2 µM | 62.2 µM | > 100 µM | > 100 µM | 45.4 µM | – | > 100 µM | – | – | – | – | – | – | –
COC1/C=C/C(C)C(C(C)C(OC)C(C)CCC(=O)C(C)C(CC(=O)O)OC)OC(=O)/C=C/C=C(\C)CC(OC)C(OC)C2=CC(=O)O[C@@H](C(C)C(OC)CC(OC)/C=C/C(C)C(O)C1)[C@H]2O (some centres not stated) | > 1.07 µM | – | > 1.07 µM | 0.365 µM | > 1.07 µM | > 1.07 µM | 0.242 µM | > 1.07 µM | – | 0.468 µM | > 1.07 µM | – | – | – | – | – | – | – | – | –
Cc1ccc(/C(O)=C/c2nc3ccccc3nc2NC23CC4CC(CC(C4)C2)C3)cc1 | > 10 µM | > 10 µM | > 10 µM | – | > 10 µM | > 10 µM | > 10 µM | > 10 µM | > 10 µM | > 10 µM | > 10 µM | > 10 µM | – | – | – | – | – | – | – | –
CCCCn1c(C)c(C)c2c1NN=C(C#N)S2(=O)=O | > 100 µM | > 100 µM | > 100 µM | – | – | > 100 µM | > 100 µM | > 100 µM | > 100 µM | > 100 µM | > 100 µM | > 100 µM | – | – | – | – | – | – | – | –
N#Cc1cccc(Nc2ccccc2SSc2ccccc2Nc2cccc(C#N)c2)c1 | > 21.5 µM | > 14.6 µM | 12 µM | – | – | > 21.5 µM | 17 µM | > 21.5 µM | 17.4 µM | > 21.5 µM | > 21.5 µM | – | – | – | – | – | – | – | – | –
C[C@@H]1C(=O)O[C@@H]2C[C@@]1(C)[C@@H]1C(=O)C3(O)OC14C2(C)OC(=O)[C@@]4(O)CCC1C3C(O)C=C2CC=CC(=O)[C@@]21C (some centres not stated) | – | 50.7 µM | > 100 µM | – | > 100 µM | > 100 µM | > 100 µM | > 100 µM | 53.5 µM | > 100 µM | > 100 µM | – | 32.8 µM | – | – | – | – | – | – | –
N#CC12CCC(O)C(CC1)C2=O (configuration not stated) | > 100 µM | – | > 100 µM | > 100 µM | > 100 µM | > 100 µM | > 100 µM | > 100 µM | > 100 µM | > 100 µM | > 100 µM | – | > 100 µM | – | – | – | – | – | – | –
